pEC50: −log10 of the molar value.
Molecular target: T1, human GLP-1R receptor (Homo sapiens, UniProt P43220)
T1 construct: expressed in transfected cells
Experiment: GLP-1R low expression cell assay (cAMP TR-FRET, CHO-K1_hGLP-1Rlow_clone10 cells)
Assay type: cell-based
Conditions: for pEC50: cAMP TR-FRET, 30 min at 25° C.; for Emax / GLP-1R Low Expression Cell Assay Emax (%): maximum activation relative to control GLP-1 peptide agonist
Outline: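 Readout is cAMP TR-FRET after 30 min compound stimulation at 25 °C of a low-GLP-1R-expressing CHO-K1 clone (1,000 cells/well), with 10-point 3-fold serial dilutions. Percent activation versus a control GLP-1 peptide, from duplicates, was Hill-fitted to give EC50.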

T1 sequence (P43220 24-463): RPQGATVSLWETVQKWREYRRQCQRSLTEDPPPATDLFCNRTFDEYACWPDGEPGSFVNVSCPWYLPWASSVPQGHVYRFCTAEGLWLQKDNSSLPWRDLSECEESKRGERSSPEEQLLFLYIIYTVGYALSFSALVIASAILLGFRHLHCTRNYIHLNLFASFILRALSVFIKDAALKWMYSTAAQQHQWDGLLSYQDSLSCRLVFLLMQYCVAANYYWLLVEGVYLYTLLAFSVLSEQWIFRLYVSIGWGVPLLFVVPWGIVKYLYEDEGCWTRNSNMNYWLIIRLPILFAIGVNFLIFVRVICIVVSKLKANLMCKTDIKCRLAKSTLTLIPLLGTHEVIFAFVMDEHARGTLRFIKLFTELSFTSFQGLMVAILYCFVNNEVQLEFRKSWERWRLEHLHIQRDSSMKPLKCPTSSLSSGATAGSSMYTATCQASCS

Structure (SMILES)	pEC50	Emax	GLP-1R Low Expression Cell Assay Emax (%)
Cn1c(CN2CCC(c3cccc(OCc4ccc(Cl)cc4F)n3)CC2)nc2c3c(c(C(=O)O)cc21)OCCO3 [Compound 311, 2-((4-(6-((4-chloro-2-fluorobenzyl)oxy)pyridin-2-yl)piperidin-1-yl)methyl)-3-methyl-7,8-dihydro-3H-[1,4]dioxino[2′,3′:3,4]benzo[1,2-d]imidazole-5-carboxylic acid]	7.00 to 8.00	> 85%	–
COc1cc(C(=O)O)cc2c1nc(CN1CCC(c3cccc4c3O[C@H](c3ccc(Cl)cc3F)CO4)CC1)n2C [Compound 267, (R)-2-((4-(3-(4-Chloro-2-fluorophenyl)-2,3-dihydrobenzo[b][1,4]dioxin-5-yl)piperidin-1-yl)methyl)-4-methoxy-1-methyl-1H-benzo[d]imidazole-6-carboxylic acid]	6.00 to 7.00	> 85%	–
COc1cc(C(=O)O)cc2c1nc(N(C)[C@H]1CC[C@H](c3cccc(OCc4ccc(C#N)cc4F)n3)CC1)n2C [Compound 178, 2-(((1r,4r)-4-(6-((4-Cyano-2-fluorobenzyl)oxy)pyridin-2-yl)cyclohexyl)(methyl)amino)-4-methoxy-1-methyl-1H-benzo[d]imidazole-6-carboxylic acid]	> 8.00	> 85%	–
Cn1c(CN2CCC(c3cccc(OCc4ccc(C(F)F)cc4F)n3)CC2)nc2c(OC(F)F)cc(C(=O)O)cc21 [Compound 201, 4-(Difluoromethoxy)-2-((4-(6-((4-(difluoromethyl)-2-fluorobenzyl)oxy)pyridin-2-yl)piperidin-1-yl)methyl)-1-methyl-1H-benzo[d]imidazole-6-carboxylic acid]	7.00 to 8.00	> 85%	–
Cn1c(N[C@H]2CC[C@H](c3cccc(OCc4ccc(Cl)cc4F)n3)CC2)nc2c(OC(F)F)cc(C(=O)O)cc21 [Compound 371, 2-(((1r,4r)-4-(6-((4-Chloro-2-fluorobenzyl)oxy)pyridin-2-yl)cyclohexyl)amino)-4-(difluoromethoxy)-1-methyl-1H-benzo[d]imidazole-6-carboxylic acid]	< 6.00	> 85%	–
CC(CF)Oc1cc(C(=O)O)cc2c1nc(CN1CCC(c3cccc(OCc4ccc(Cl)cc4F)n3)CC1)n2C (single isomer, unassigned) [Compound 263]	> 8.00	–	++++ (Emax is >85%)
Cn1c(CN2CCC(c3cccc(OCc4ccc(Cl)cc4OC(F)F)n3)CC2)nc2c(OC(F)F)cc(C(=O)O)cc21 [Compound 246, 2-((4-(6-((4-Chloro-2-(difluoromethoxy)benzyl)oxy)pyridin-2-yl)piperidin-1-yl)methyl)-4-(difluoromethoxy)-1-methyl-1H-benzo[d]imidazole-6-carboxylic acid]	> 8.00	> 85%	–
CC(F)(F)c1cc(C(=O)O)cc2c1nc(CN1CCC(c3cccc4c3O[C@@](C)(c3ccc(Cl)cn3)O4)CC1)n2C[C@@H]1CCO1 [Compound 57, 2-((4-((S)-2-(5-Chloropyridin-2-yl)-2-methylbenzo[d][1,3]dioxol-4-yl)piperidin-1-yl)methyl)-4-(1,1-difluoroethyl)-1-(((S)-oxetan-2-yl)methyl)-1H-benzo[d]imidazole-6-carboxylic acid]	> 8.00	–	–
COc1cc(C(=O)O)cc2c1nc(CN1CCC(c3cccc4c3O[C@H](c3ccc(C#N)cc3F)CO4)CC1)n2Cc1cncs1 [Compound 91, (R)-2-((4-(3-(4-cyano-2-fluorophenyl)-2,3-dihydrobenzo[b][1,4]dioxin-5-yl)piperidin-1-yl)methyl)-4-methoxy-1-(thiazol-5-ylmethyl)-1H-benzo[d]imidazole-6-carboxylic acid]	6.00 to 7.00	> 85%	–
COc1c(OCc2ccc(Cl)cc2F)cccc1C1CCN(Cc2nc3c(OC(F)F)cc(C(=O)O)cc3n2C)CC1 [Compound 171, 2-((4-(3-((4-Chloro-2-fluorobenzyl)oxy)-2-methoxyphenyl)piperidin-1-yl)methyl)-4-(difluoromethoxy)-1-methyl-1H-benzo[d]imidazole-6-carboxylic acid]	< 6.00	< 25%	–
Cn1c(CN2CCC(c3cccc(OCc4ccc(Cl)cc4F)n3)CC2)nc2c(OC(F)F)cc(NCC(=O)O)cc21 [Compound 255, (2-((4-(6-((4-chloro-2-fluorobenzyl)oxy)pyridin-2-yl)piperidin-1-yl)methyl)-4-(difluoromethoxy)-1-methyl-1H-benzo[d]imidazol-6-yl)glycine]	6.00 to 7.00	50 to 85%	–
Cn1c(Cc2cc(F)c(-c3cccc(OCc4ccc(Cl)cc4F)n3)cc2F)nc2c(OC(F)F)cc(C(=O)O)cc21 [Compound 197, 2-(4-(6-((4-Chloro-2-fluorobenzyl)oxy)pyridin-2-yl)-2,5-difluorobenzyl)-4-(difluoromethoxy)-1-methyl-1H-benzo[d]imidazole-6-carboxylic acid]	> 8.00	> 85%	–

Second part, the molecule after the results:

pEC50	Emax	GLP-1R Low Expression Cell Assay Emax (%)	Structure (SMILES)
7.00 to 8.00	–	–	Cn1c(CN2CCC(c3cccc(OCc4ccc(F)cc4F)n3)CC2)nc2c(OC(F)F)cc(C(=O)O)cc21 [Compound 250, 2-((4-(6-((2,4-Difluorobenzyl)oxy)pyridin-2-yl)piperidin-1-yl)methyl)-4-(difluoromethoxy)-1-methyl-1H-benzo[d]imidazole-6-carboxylic acid]
> 8.00	> 85%	–	[2H]C([2H])([2H])Oc1cc(C(=O)O)cc2c1nc(CN1CCC(c3cccc(OCc4ccc(C#N)cc4F)n3)CC1)n2C[C@@H]1CCO1 [Compound 108, (S)-2-((4-(6-((4-Cyano-2-fluorobenzyl)oxy)pyridin-2-yl)piperidin-1-yl)methyl)-4-(methoxy-d3)-1-(oxetan-2-ylmethyl)-1H-benzo[d]imidazole-6-carboxylic acid]
6.00 to 7.00	> 85%	–	CCOc1cc(CC(=O)O)cc2c1nc(CN1CCC(c3cccc(OCc4ccc(C#N)cc4F)n3)CC1)n2C [Compound 259, 2-(2-((4-(6-((4-Cyano-2-fluorobenzyl)oxy)pyridin-2-yl)piperidin-1-yl)methyl)-4-ethoxy-1-methyl-1H-benzo[d]imidazol-6-yl) acetic acid]
> 8.00	> 85%	–	Cn1c(CN2CCC(c3cccc(OCc4ccc(C#N)cc4F)n3)CC2)nc2c(OCC(F)(F)F)cc(C(=O)O)cc21 [Compound 121, 2-((4-(6-((4-Cyano-2-fluorobenzyl)oxy)pyridin-2-yl)piperidin-1-yl)methyl)-1-methyl-4-(2,2,2-trifluoroethoxy)-1H-benzo[d]imidazole-6-carboxylic acid]
> 8.00	> 85%	–	N#Cc1ccc(COc2cccc(C3CCN(Cc4nc5c(OC(F)F)cc(C(=O)O)cc5n4C[C@@H]4CCS4(=O)=O)CC3)n2)c(F)c1 [Compound 110, (S)-2-((4-(6-((4-Cyano-2-fluorobenzyl)oxy)pyridin-2-yl)piperidin-1-yl)methyl)-4-(difluoromethoxy)-1-((1,1-dioxidothietan-2-yl)methyl)-1H-benzo[d]imidazole-6-carboxylic acid]
7.00 to 8.00	–	++++ (Emax is >85%)	Cn1c(CN2CCC(c3cccc(OCc4ccc(Cl)cc4F)n3)CC2)nc2c(OC(F)CF)cc(C(=O)O)cc21 (single isomer, unassigned) [Compound 330]
7.00 to 8.00	> 85%	–	O=C(O)c1cc(OCF)c2nc(CN3CCC(c4cccc(OCc5ccc(Cl)cc5F)n4)CC3)n(CF)c2c1 [Compound 346, 2-((4-(6-((4-Chloro-2-fluorobenzyl)oxy)pyridin-2-yl)piperidin-1-yl)methyl)-4-(fluoromethoxy)-1-(fluoromethyl)-1H-benzo[d]imidazole-6-carboxylic acid]
6.00 to 7.00	> 85%	–	O=C(O)c1ccc2c(nc(CN3CCC(c4cccc(OCc5ccc(Cl)cc5F)n4)CC3)n2C[C@@H]2CCO2)c1OC(F)F [Compound 191, (S)-2-((4-(6-((4-chloro-2-fluorobenzyl)oxy)pyridin-2-yl)piperidin-1-yl)methyl)-4-(difluoromethoxy)-1-(oxetan-2-ylmethyl)-1H-benzo[d]imidazole-5-carboxylic acid]
> 8.00	> 85%	–	COc1cc(C#N)ccc1COc1cccc(C2CCN(Cc3nc4c(OC)cc(C(=O)O)cc4n3C)CC2)n1 [Compound 344, 2-((4-(6-((4-Cyano-2-methoxybenzyl)oxy)pyridin-2-yl)piperidin-1-yl)methyl)-4-methoxy-1-methyl-1H-benzo[d]imidazole-6-carboxylic acid]
> 8.00	> 85%	–	Cn1c(CN2CCC(c3cccc(OCc4ccc(Cl)cc4F)n3)CC2)nc2c(OCCO)cc(C(=O)O)cc21 [Compound 343, 2-((4-(6-((4-Chloro-2-fluorobenzyl)oxy)pyridin-2-yl)piperidin-1-yl)methyl)-4-(2-hydroxyethoxy)-1-methyl-1H-benzo[d]imidazole-6-carboxylic acid]
7.00 to 8.00	> 85%	–	CS(=O)(=O)Nc1cc(C(=O)O)cc2c1nc(CN1CCC(c3cccc(OCc4ccc(C#N)cc4F)n3)CC1)n2C[C@@H]1CCO1 [Compound 129, (S)-2-((4-(6-((4-cyano-2-fluorobenzyl)oxy)pyridin-2-yl)piperidin-1-yl)methyl)-4-(methylsulfonamido)-1-(oxetan-2-ylmethyl)-1H-benzo[d]imidazole-6-carboxylic acid]
> 8.00	> 85%	–	Cn1c(CN2CCC(c3cccc(OCc4ccc(C#N)cc4F)n3)CC2)nc2c(N)cc(C(=O)O)cc21 [Compound 115, 4-amino-2-((4-(6-((4-cyano-2-fluorobenzyl)oxy)pyridin-2-yl)piperidin-1-yl)methyl)-1-methyl-1H-benzo[d]imidazole-6-carboxylic acid]
> 8.00	> 85%	–	CO/N=C/c1ccc(COc2cccc(C3CCN(Cc4nc5c(OC)cc(C(=O)O)cc5n4C[C@@H]4CCO4)CC3)n2)c(F)c1 [Compound 9, (S)-2-((4-(6-((2-Fluoro-4-((methoxyimino)methyl)benzyl)oxy)pyridin-2-yl)piperidin-1-yl)methyl)-4-methoxy-1-(oxetan-2-ylmethyl)-1H-benzo[d]imidazole-6-carboxylic acid]
